Source: patent US20080286373A1, “Ziprasidone formulations” (priority 2007, published 2008)
Where a name gives a salt, the structure may show the parent alone.

Assays:
[1] = Within 45 minutes; pH 7.5, 900 ml aqueous monobasic sodium phosphate with 2w/v % Na dodecyl sulfate, USP 2 paddles 75 rpm; formulation of U.S. Pat. No. 6,150,366, mean particle size <85 microns; cited from earlier work
[2] = Solubility of ziprasidone hydrochloride monohydrate in various solvents (Table 1); type: physicochemical
[3] = Solubility of ziprasidone hydrochloride monohydrate in excipients (Table 2); type: physicochemical
Description: Solubility in various excipients that are frequently used to improve solubility was also tested and the results thereof are in Table 2 below.

In the case of Ziprasidone, the ziprasidone dissolved [1] is listed as 70%.

`O=C1Cc2cc(CCN3CCN(c4nsc5ccccc45)CC3)c(Cl)cc2N1` [Ziprasidone HCl monohydrate, ziprasidone hydrochloride monohydrate] gave a solubility ([2]; solvent ACN) of less than 1%, a solubility ([2]; solvent Acetone) of less than 1% and a solubility ([2]; solvent Acetone/water) of less than 1%. It also gave a solubility ([2]; solvent DCM) of less than 1%, a solubility ([2]; solvent DMF/DMA/DMSO) of 1.5% and a solubility ([2]; solvent DMF/water 80/20) of less than 1%. It also gave a solubility ([2]; solvent Ethanol) of less than 1%, a solubility ([2]; solvent Isopropanol) of less than 1% and a solubility ([2]; solvent Methanol) of 1.5%. The solubility ([2]; solvent Methanol/acetic acid 90/10) was less than 1%, the solubility ([2]; solvent Methanol/water 60/40) was less than 1% and the solubility ([2]; solvent Methanol/water 80/20) was 1.5%. For the same compound, the solubility ([2]; solvent THF) was less than 1%, the solubility ([3]; 0.1 N HCl solution, simulated gastric fluid) was 500 µg/mL and the solubility ([3]; 5% caprolactam in water, aqueous with cosolvent or surfactant or cyclodextrin, 5% caprolactam in solution in water) was 300 µg/mL. For the same compound, the solubility ([3]; 20% Lactic acid in PEG 400, organic solvent or mixture) was 1300 µg/mL, the solubility ([3]; 20% Lutrol in TPGS, organic solvent or mixture) was 1000 µg/mL and the solubility ([3]; Benzyl alcohol, organic solvent or mixture) was 2900 µg/mL. The solubility ([3]; Benzyl benzoate, organic solvent or mixture) was 300 µg/mL, the solubility ([3]; Ethanol, organic solvent or mixture) was 400 µg/mL and the solubility ([3]; Gelucire 44/14, oil or lipid) was 1000 µg/mL. The solubility ([3]; Gelucire 50/13, oil or lipid) was 1000 µg/mL, the solubility ([3]; Glacial acetic acid, organic solvent or mixture) was 2800 µg/mL and the solubility ([3]; Glycerol, organic solvent or mixture) was 1250 µg/mL. It also gave a solubility ([3]; Labrofac (Capric triglyceride PEG-4 ester), oil or lipid) of 900 µg/mL, a solubility ([3]; Lactic acid (85% strength), organic solvent or mixture) of 10000 µg/mL and a solubility ([3]; Maisine 35-1 (glycerol monolinoleate), oil or lipid) of 1000 µg/mL. It also gave a solubility ([3]; N-methyl 2-pyrrolidone, organic solvent or mixture) of 10000 µg/mL, a solubility ([3]; PEG 400, organic solvent or mixture) of 2500 µg/mL and a solubility ([3]; PEG 6000, organic solvent or mixture) of 2500 µg/mL. The solubility ([3]; Peceol (glycerol monooleate 40), oil or lipid) was 1000 µg/mL, the solubility ([3]; Propylene glycol, organic solvent or mixture) was 2000 µg/mL and the solubility ([3]; Span 80, organic solvent or mixture) was 500 µg/mL. The solubility ([3]; Tween 20, organic solvent or mixture) was 3000 µg/mL, the solubility ([3]; Tween 80, organic solvent or mixture) was 2100 µg/mL and the solubility ([3]; Water) was 30 µg/mL. For the same compound, the solubility ([3]; aqueous buffer, Phosphate buffer pH 6.8 (without SLS)) was less than 10 µg/mL.
